{"source": "paper PMC9220178", "about": "“Preclinical Characterization of Antioxidant Quinolyl Nitrone QN23 as a New Candidate for the Treatment of Ischemic Stroke” (Antioxidants, 2022)", "type_in_all_cases": "in vivo, rat", "key": {"[1]": {"tested_on": "adult male Wistar rats, four-vessel occlusion (4VO) transient forebrain ischemia", "assay": "Neurological deficit score (NDS) after global cerebral ischemia (4VO)", "settings": "40 mg/kg i.v.; R5d; times tested 0, 1, 3, 6 h", "experimental": "Transient forebrain ischemia was induced in adult male Wistar rats (10–12 weeks, Charles River, L’Arbresle, France) by the standard four-vessel occlusion (4VO) model previously described. Briefly, animals were anesthetized by intraperitoneal injection of a combination of ketamine, diazepam, and atropine (62.5, 5.0, and 0.25 mg/kg, respectively); positioned in a stereotactic device; and both vertebral arteries were cauterized. The next day, anesthesia was induced with 4% isoflurane and maintained at 2–2.5% isoflurane for carotid artery dissection. After anesthesia withdrawal, the carotid arteries were occluded with an atraumatic vascular clamp to induce brain ischemia. During the entire surgical procedure, temperature was monitored at 2 min intervals and kept at 37 °C. After 15 min of ischemia, the carotid arteries were unclamped for brain reperfusion. The animals were studied after 5 days of reperfusion (R5d), or after 11 weeks of reperfusion (long-term studies), and then they were euthanized under deep anesthesia. Animals from the sham control group were handled in the same way, but without occlusion of the carotid arteries. Ischemic animals were treated with vehicle solution (ethanol/polyethylene glycol 400/saline, 1:300:200 v/v), or with nitrones QN23 or NXY-059 in vehicle solution, as a single injection through the tail vein at the onset of reperfusion. For the therapeutic window experiments, the animals were also treated at reperfusion times 1, 3, and 6 h after ischemia. The treatments were prepared by an independent researcher and administered with concealed allocation. Treatments were administered in a randomized order obtained by a computer-based randomization program. […]\nAfter 5 days of post-ischemic reperfusion (R5d), neurological deficits were evaluated in the animals by a researcher blind to the treatment allocation. General status and mobility impairments were quantified according to a scale previously validated in an entire cohort of R5d animals (n = 20). […]"}, "[2]": {"tested_on": "adult male Wistar rats, four-vessel occlusion (4VO) transient forebrain ischemia", "assay": "Neuronal death by Fluoro-Jade B staining after transient global cerebral ischemia (4VO)", "settings": "40 mg/kg i.v. at 0, 1, 3 or 6 h of reperfusion; R5d", "experimental": "(§1) Transient forebrain ischemia was induced in adult male Wistar rats (10–12 weeks, Charles River, L’Arbresle, France) by the standard four-vessel occlusion (4VO) model previously described. Briefly, animals were anesthetized by intraperitoneal injection of a combination of ketamine, diazepam, and atropine (62.5, 5.0, and 0.25 mg/kg, respectively); positioned in a stereotactic device; and both vertebral arteries were cauterized. The next day, anesthesia was induced with 4% isoflurane and maintained at 2–2.5% isoflurane for carotid artery dissection. After anesthesia withdrawal, the carotid arteries were occluded with an atraumatic vascular clamp to induce brain ischemia. During the entire surgical procedure, temperature was monitored at 2 min intervals and kept at 37 °C. After 15 min of ischemia, the carotid arteries were unclamped for brain reperfusion. The animals were studied after 5 days of reperfusion (R5d), or after 11 weeks of reperfusion (long-term studies), and then they were euthanized under deep anesthesia. Animals from the sham control group were handled in the same way, but without occlusion of the carotid arteries. Ischemic animals were treated with vehicle solution (ethanol/polyethylene glycol 400/saline, 1:300:200 v/v), or with nitrones QN23 or NXY-059 in vehicle solution, as a single injection through the tail vein at the onset of reperfusion. For the therapeutic window experiments, the animals were also treated at reperfusion times 1, 3, and 6 h after ischemia. The treatments were prepared by an independent researcher and administered with concealed allocation. Treatments were administered in a randomized order obtained by a computer-based randomization program. To determine the sample size, a power analysis (http://www.biomath.info/power/ttest.htm, accessed on 12 March 2020) with significance level set at 0.05 and statistical power set at 0.8 (80%) rendered a sample size of <6 subjects per group. A total of 120 ischemic animals (30 animals treated with vehicle, 60 treated with QN23, and 30 treated with NXY-059) and 9 sham control animals were included in these studies. Additionally, 13 animals were excluded from the study: 6 animals were not ischemic and 7 animals died within the 24 h after the surgical procedure (5 vehicles, 1 QN23-treated at 1.0 mg/kg, and 1 QN23-treated at 2.0 mg/kg). The Animal Care Ethics Committee of the Hospital Universitario Ramón y Cajal (Madrid, Spain) authorized all the procedures involving the animal experimentation reported here (authorization number 04/2020). These experiments were performed according to ARRIVE guidelines and the legislation on the protection of animals used for scientific purposes in Spain (RD 53/2013) and the EU (Directive 2010/63/EU). The study was designed and conducted according to the STAIR guidelines regarding physiological monitoring, sample randomization, predefined exclusion criteria, allocation concealment, blinded assessment of outcomes, dose–response definition, and a conflict-of-interest statement.\n(§2) After 5 days of reperfusion (R5d), or at 11 weeks of reperfusion in long-term studies, animals were euthanized by transcardiac perfusion via the left ventricle under deep anesthesia. First, blood was washed out with 200 mL of ice-cold saline medium, followed by fixation with 4% (w/v) paraformaldehyde solution in PBS for brain preservation. Then, the brains were carefully removed from the cranial cavity and placed in 4% (w/v) paraformaldehyde solution in PBS overnight at 4 °C. The next day, the brains were sequentially placed in 10%, 20%, and 30% (w/v) sucrose in PBS until sunken, and finally embedded in Tissue-Tek O.C.T. (Sakura Finetek, Torrance, CA, USA) before freezing at −80 °C. Brain coronal sections containing the hippocampus region were obtained by cryostat sectioning at the level of interaural line +5.7 ± 0.2 mm on Real Capillary Gap microscope slides (Agilent Dako, Santa Clara, CA, USA). […]"}, "[3]": {"tested_on": "adult male Wistar rats, four-vessel occlusion (4VO) transient forebrain ischemia", "assay": "Long-term behavioral tests in the Y maze", "settings": "40 mg/kg i.v. at reperfusion onset, 11 weeks after ischemia", "experimental": "Long-term assessment of neurological damage after the ischemic episode was performed by the evaluation of the spontaneous exploratory activity (spatial recognition) and spatial memory skills in the Y maze.\nFor the assessment of the exploratory activity and spatial recognition, control animals and ischemic animals treated with vehicle, QN23, or NXY-059 were placed in the center of the maze and allowed free exploration for 8 min. An independent researcher blind to the treatment allocation registered the total number of arms that the animal entered indistinctly (arm entries), and the times that the animal explored the three different arms of the maze consecutively (alternations or triads).\nFor the assessment of spatial memory, experiments consisted of two trials. For the first trial (training), control and ischemic animals treated with vehicle or QN23 were placed into one of the arms (start arm) and allowed to explore the Y maze for 10 min with one of the arms closed. One hour after the training trial, the animals were returned to the Y maze and the second trial was conducted. The animals were placed in the same start arm as in the training trial, but now with the remaining two arms of the maze available for exploration for 3 min. A researcher blind to the treatment allocation registered the first choice of arm for entry (novel or old)."}, "[4]": {"tested_on": "adult male Wistar rats, four-vessel occlusion (4VO) transient forebrain ischemia", "assay": "Neuronal apoptosis by TUNEL assay after transient global cerebral ischemia (4VO)", "settings": "40 mg/kg i.v. at 0, 1, 3 or 6 h of reperfusion; R5d", "experimental": "as §1, §2"}}, "data": [{"smiles": "CC(C)(C)[N+]([O-])=Cc1ccc(S(=O)(=O)[O-])cc1S(=O)(=O)[O-].[Na+].[Na+]", "note": "[NXY-059, reference compound]", "values": [{"measurement": "Therapeutic window: administration time after reperfusion onset with significantly reduced NDS", "setting": "[1]", "value": 0, "unit": "h"}, {"measurement": "Neuronal death compared with vehicle", "setting": "[2]", "value": "did not reduce neuronal death"}, {"measurement": "Y maze arm entries (exploratory activity)", "setting": "[3]", "value": "fewer arm maze entries"}, {"measurement": "Y maze alternations (triads completed), spatial recognition", "setting": "[3]; vehicle 5.0, control 15.75", "value": 5.5}, {"measurement": "Percentage of animals exploring the novel arm as a first choice (spatial memory)", "setting": "[3]; vehicle 17%, control 75%", "value": 50, "unit": "%"}, {"measurement": "Apoptosis reduction compared with vehicle", "setting": "[4]", "value": "did not produce a significant effect"}]}]}
